Here are results for twelve compounds from ChEMBL document CHEMBL3870330, “Exploring the anti-biofilm activity of cinnamic acid derivatives in Candida albicans” (2016).

Values after ≈ are worked out from the molar mass of the structure shown. Where only a bound is given, the exact number is not on record here.

Holding throughout (assay type): functional
For test [1], the system named is Candida albicans. The test is described as follows: Antifungal activity against planktonic cells of Candida albicans ATCC 10231 after 48 hrs by microdilution assay. The conditions noted are these: ATCC 10231, 48 h. (In general: Broth dilution looks for growth in wells or tubes with falling amounts of substance.)
The subject of test [2] is Candida albicans. The test is described as follows: Antibiofilm activity against mature biofilm of Candida albicans ATCC 10231 after 24 hrs by XTT reduction assay. On the technique in general: Tetrazolium assays rely on reduction of a dye to a coloured formazan, in cell work by metabolically active cells.
The test system of test [3] is Candida albicans. The test is described as follows: Antibiofilm activity against Candida albicans ATCC 10231 after 24 hrs by XTT reduction assay.

The term MIC50 denotes an inhibitory concentration at the 50% level, which refers to growth in some studies and to a panel of isolates in others. In the test with Candida albicans [1], `Cc1ncc([N+](=O)[O-])n1CCOC(=O)/C=C/c1ccccc1` gave an MIC50 of no less than 128 µg/mL. Also, the results for the MBIC50 in the test on Candida albicans [2] and with Candida albicans [3] were greater than 128 µg/mL and “>=32 - 128 ug ml-1”, respectively.
`O=C(/C=C/c1ccccc1)OCc1ccc([N+](=O)[O-])o1`: the MIC50 in the test with Candida albicans [1] fell in the range of 2 to 16 µg/mL (≈ 7.32 to 58.6 µM). Also, the MBIC50 with Candida albicans [2] is 64 µg/mL; in the test on Candida albicans [3], 16 to 64 µg/mL.
The matching figures for `O=C(/C=C/c1ccccc1)N1CCN(c2ncccc2[N+](=O)[O-])CC1`: greater than 128 µg/mL, greater than 128 µg/mL and greater than 128 µg/mL.
Turning to `O=C(/C=C/c1ccccc1)OCc1ccco1`, the MIC50 against Candida albicans [1] lay in the range of 64 to 128 µg/mL (≈ 280 to 561 µM). Besides, the MBIC50 result with Candida albicans [2] is listed as “>=128 ug ml-1”; in the test with Candida albicans [3], “>=16 - 128 ug ml-1”.
Taken in the same sequence, the figures for `O=C(/C=C/c1ccccc1)NCCCn1ccnc1` were greater than 128 µg/mL, greater than 128 µg/mL and greater than 128 µg/mL.
`O=C(/C=C/c1ccccc1)OC(Cn1cncn1)(Cn1cncn1)c1ccc(F)cc1F` showed an MIC50 against Candida albicans [1] of 0.5 to 64 µg/mL (≈ 1.15 to 147 µM). Further, the MBIC50 is greater than 32 to 128 µg/mL in the test with Candida albicans [2] and 4 to 128 µg/mL in the test with Candida albicans [3].
Consider `O=C(/C=C/c1ccccc1)N1CCN(c2ccc([N+](=O)[O-])cc2)CC1`, for which the MIC50 in the test on Candida albicans [1] was 32 to 128 µg/mL (≈ 94.8 to 379 µM). Also, the MBIC50 was greater than 32 to 128 µg/mL with Candida albicans [2] and greater than 128 µg/mL in the test with Candida albicans [3].
The matching figures for `O=C(/C=C/c1ccccc1)OC(Cn1ccnc1)c1ccc(Cl)cc1Cl` (stereo unspecified): 2 to 16 µg/mL (≈ 5.16 to 41.3 µM), 8 to 64 µg/mL and 2 to 64 µg/mL.
Compound `O=C(/C=C/c1ccccc1)NCCc1c[nH]c2ccccc12` came in with an MIC50 against Candida albicans [1] greater than 128 µg/mL. Further, the values for the MBIC50 in the test on Candida albicans [2] and in the test with Candida albicans [3] were greater than 128 µg/mL and 8 to 128 µg/mL, respectively.
The compound `O=C(/C=C/c1ccccc1)Nc1nc2ccc([N+](=O)[O-])cc2s1` registered an MIC50 against Candida albicans [1] greater than 128 µg/mL. In addition, the MBIC50 result in the test on Candida albicans [2] and with Candida albicans [3] was “>=64 - 128 ug ml-1” in each case.
As for `O=C(O)/C=C/c1ccccc1` [CINNAMIC ACID], in the test on Candida albicans [1], the MIC50 was greater than 128 µg/mL. Further, the MBIC50 in the test on Candida albicans [2] and with Candida albicans [3] was greater than 128 µg/mL each time.
Consider `OC(Cn1cncn1)(Cn1cncn1)c1ccc(F)cc1F` [FLUCONAZOLE], for which the MIC50 in the test with Candida albicans [1] is 0.5 µg/mL (≈ 1.63 µM). Also, the results for the MBIC50 in the test with Candida albicans [2] and in the test with Candida albicans [3] were greater than 128 µg/mL and 128 µg/mL, respectively.
